This assay has as its system P388 leukemia ip, CD2F1 mice, survival T/C. Put plainly: NCI In Vivo Anticancer Drug Screen. Data for tumor model P388 Leukemia (intraperitoneal) in CD2F1 (CDF1) mice. Conditions: endpoint: median survival time, higher = longer survival. The method in brief:
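Mice carrying the transplanted tumor received test compound or vehicle. Survival was recorded in each group, and the value is the treated-group measurement divided by that of the vehicle-treated control group.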

[1] abbreviates: dose: 50.0 mg/kg/injection, schedule: Q01DX009 (ip), vehicle: other.
Where [2] appears, read: dose: 50.0 mg/kg/injection, schedule: Q01DX009 (ip), vehicle: saline with Tween-80.
The mark [3] stands for this setting: dose: 100.0 mg/kg/injection, schedule: Q01DX009 (ip), vehicle: other.
[4] abbreviates: dose: 100.0 mg/kg/injection, schedule: Q01DX009 (ip), vehicle: saline with Tween-80.
The mark [5] stands for this setting: dose: 200.0 mg/kg/injection, schedule: Q01DX009 (ip), vehicle: other.
[6] abbreviates: dose: 200.0 mg/kg/injection, schedule: Q01DX009 (ip), vehicle: saline with Tween-80.
The mark [7] stands for this setting: dose: 50.0 mg/kg/injection, schedule: Q01DX009 (ip), vehicle: Klucel (hydroxypropylcellulose) (HPC).
The mark [8] stands for this setting: dose: 100.0 mg/kg/injection, schedule: Q01DX009 (ip), vehicle: Klucel (hydroxypropylcellulose) (HPC).
The mark [9] stands for this setting: dose: 200.0 mg/kg/injection, schedule: Q01DX009 (ip), vehicle: Klucel (hydroxypropylcellulose) (HPC).
The mark [10] stands for this setting: dose: 50.0 mg/kg/injection, schedule: Q01DX005 (ip), vehicle: Klucel (hydroxypropylcellulose) (HPC).
Where [11] appears, read: dose: 100.0 mg/kg/injection, schedule: Q01DX005 (ip), vehicle: Klucel (hydroxypropylcellulose) (HPC).
[12] abbreviates: dose: 200.0 mg/kg/injection, schedule: Q01DX005 (ip), vehicle: Klucel (hydroxypropylcellulose) (HPC).
Setting [13] is: dose: 12.5 mg/kg/injection, schedule: Q01DX005 (ip), vehicle: Klucel (hydroxypropylcellulose) (HPC).
Setting [14] is: dose: 12.5 mg/kg/injection, schedule: Q01DX005 (ip), vehicle: saline with Tween-80.
[15] abbreviates: dose: 25.0 mg/kg/injection, schedule: Q01DX005 (ip), vehicle: saline with Tween-80.
The mark [16] stands for this setting: dose: 50.0 mg/kg/injection, schedule: Q01DX005 (ip), vehicle: saline with Tween-80.
The mark [17] stands for this setting: dose: 100.0 mg/kg/injection, schedule: Q01DX005 (ip), vehicle: saline with Tween-80.
[18] abbreviates: dose: 200.0 mg/kg/injection, schedule: Q01DX005 (ip), vehicle: saline with Tween-80.

Values joined by “and” are separate entries in the source; they are usually repeats but may differ in a detail not shown here. Equal values may be shown once. Inconclusive results and toxic doses are left out.

Results on 23 molecules are retold here after PubChem BioAssay AID330 (DTP/NCI, 2004).

For `Nc1ccc(Cl)cc1N`, the T/C runs as follows: (dose: 12.5 mg/kg/injection, schedule: Q01DX009 (ip), vehicle: other) 105 % of control; (dose: 12.5 mg/kg/injection, schedule: Q01DX009 (ip), vehicle: saline with Tween-80) 102 % of control; (dose: 25.0 mg/kg/injection, schedule: Q01DX009 (ip), vehicle: other) 100 % of control; (dose: 25.0 mg/kg/injection, schedule: Q01DX009 (ip), vehicle: saline with Tween-80) 102 % of control and 104 % of control; under setting [1], 113 % of control; under setting [2], 101 % of control and 107 % of control. For the same molecule, the T/C is 105 % of control under setting [3]; 100 % of control and 105 % of control under setting [4]; 105 % of control under setting [5]; 114 % of control and 121 % of control under setting [6].

Regarding `FC(F)(F)c1ccccc1NC(=S)SCc1ccc2c(c1)OCO2`, the T/C reads like this: (dose: 12.5 mg/kg/injection, schedule: Q01DX009 (ip), vehicle: saline) 97 % of control; (dose: 25.0 mg/kg/injection, schedule: Q01DX009 (ip), vehicle: saline) 90 % of control; (dose: 50.0 mg/kg/injection, schedule: Q01DX009 (ip), vehicle: saline) 100 % of control.

On to `Cn1c2ccccc2c2nnc(-n3nc(-c4ccccc4)cc3N)nc21`, for which the T/C (dose: 100.0 mg/kg/injection, schedule: Q04DX002 (ip), vehicle: saline with Tween-80) was 92 % of control; the T/C (dose: 200.0 mg/kg/injection, schedule: Q04DX002 (ip), vehicle: saline with Tween-80) is 92 % of control; the T/C (dose: 400.0 mg/kg/injection, schedule: Q04DX002 (ip), vehicle: saline with Tween-80) was 91 % of control.

As for `Cc1ccccc1-n1c(-c2ccccc2)cs/c1=N\N=C1/CSC(=O)N1Cc1ccccc1`, the T/C was 107 % of control (dose: 100.0 mg/kg/injection, schedule: Q01DX001 (ip), vehicle: Klucel (hydroxypropylcellulose) (HPC)); 104 % of control (dose: 200.0 mg/kg/injection, schedule: Q01DX001 (ip), vehicle: Klucel (hydroxypropylcellulose) (HPC)); 89 % of control (dose: 400.0 mg/kg/injection, schedule: Q01DX001 (ip), vehicle: Klucel (hydroxypropylcellulose) (HPC)).

With `COc1cc(/C=C/C(=O)c2c(N)n(C)c(=O)n(C)c2=O)cc(OC)c1OC`, the T/C by setting is: under setting [7], 113 % of control; under setting [8], 115 % of control; under setting [9], 113 % of control.

For the molecule `CN(CC[n+]1cccc(C(N)=O)c1)N=O`, the T/C is 108 % of control (dose: 100.0 mg/kg/injection, schedule: Q01DX001 (ip), vehicle: saline); 100 % of control (dose: 200.0 mg/kg/injection, schedule: Q01DX001 (ip), vehicle: saline); 107 % of control (dose: 400.0 mg/kg/injection, schedule: Q01DX001 (ip), vehicle: saline).

Consider `CC(/C=C/c1ccccc1)=N\Nc1ccc(Cl)c(Cl)c1`, for which the T/C was 102 % of control under setting [7], 102 % of control under setting [8] and 100 % of control under setting [9].

Regarding `COC(=O)C1=C(c2ccccc2)ON2C(C)(C)COC12C` (centres undefined), the T/C by setting is: under setting [10], 106 % of control; under setting [11], 106 % of control; under setting [12], 100 % of control.

Turning to `CC(=O)OCC1(OC(=O)CC(C)C)COC(O)C2C(C=O)=CC=C21` (centres undefined), the T/C is, setting by setting: (dose: 3.12 mg/kg/injection, schedule: Q01DX005 (ip), vehicle: Klucel (hydroxypropylcellulose) (HPC)) 102 % of control; (dose: 6.25 mg/kg/injection, schedule: Q01DX005 (ip), vehicle: Klucel (hydroxypropylcellulose) (HPC)) 100 % of control; under setting [13], 101 % of control.

Take `Nc1ncnc2c1ncn2C1OC(COS(N)(=O)=O)C(O)C1O` (centres undefined): the T/C by setting is: (dose: 0.02 mg/kg/injection, schedule: Q01DX005 (ip), vehicle: saline) 98 % of control; (dose: 0.04 mg/kg/injection, schedule: Q01DX005 (ip), vehicle: saline) 103 % of control; (dose: 0.09 mg/kg/injection, schedule: Q01DX005 (ip), vehicle: saline) 119 % of control; (dose: 0.18 mg/kg/injection, schedule: Q01DX001 (ip), vehicle: saline) 109 % of control.

For the molecule `[O-]/[N+](=C\c1ccc(Cl)cc1Cl)c1ccccc1`, the T/C runs as follows: under setting [7], 96 % of control; under setting [8], 100 % of control; under setting [9], 100 % of control.

Take `Cc1cc(N)nc2cc(N)ccc12`: the T/C by setting is: (dose: 15.0 mg/kg/injection, schedule: Q01DX005 (ip), vehicle: Klucel (hydroxypropylcellulose) (HPC)) 89 % of control; (dose: 30.0 mg/kg/injection, schedule: Q01DX005 (ip), vehicle: Klucel (hydroxypropylcellulose) (HPC)) 99 % of control; (dose: 60.0 mg/kg/injection, schedule: Q01DX005 (ip), vehicle: Klucel (hydroxypropylcellulose) (HPC)) 98 % of control.

As for `COc1cc(CC2C(=O)OCC2C(=O)c2ccc3c(c2)OCO3)cc(OC)c1OC` (centres undefined), the T/C is 102 % of control under setting [13]; 102 % of control (dose: 25.0 mg/kg/injection, schedule: Q01DX005 (ip), vehicle: Klucel (hydroxypropylcellulose) (HPC)); 91 % of control and 93 % of control under setting [10]; 98 % of control under setting [11]; 98 % of control under setting [12].

As for `Nc1ncnc2cc3cn[nH]c3cc12`, the T/C by setting is: under setting [14], 96 % of control; under setting [15], 95 % of control; under setting [16], 94 % of control and 97 % of control; under setting [17], 91 % of control; under setting [18], 100 % of control.

For `CCOC(=O)CCCCc1cccc2ccccc12`, the T/C is, setting by setting: under setting [1], 103 % of control; under setting [3], 100 % of control; under setting [5], 107 % of control.

Consider `CN(C)C1(c2ccccc2)CS(=O)(=O)C1`, for which the T/C reads like this: under setting [2], 96 % of control; under setting [4], 96 % of control; under setting [6], 94 % of control.

As for `C/C(=N\NC(=S)N(C)C1CCCCC1)c1ccc2ccccc2n1`, the T/C is 103 % of control and 114 % of control (dose: 6.25 mg/kg/injection, schedule: Q01DX005 (ip), vehicle: saline with Tween-80); 111 % of control and 115 % of control under setting [14]; 150 % of control under setting [15].

For `O=C1Nc2ccc(Br)cc2/C1=C/C(=O)c1ccccc1`, the T/C reads like this: under setting [7], 111 % of control; under setting [8], 101 % of control; under setting [9], 103 % of control.

Regarding `Cc1ccc(S(=O)(=O)F)c(Cl)c1`, the T/C is 95 % of control (dose: 100.0 mg/kg/injection, schedule: Q04DX003 (ip), vehicle: Klucel (hydroxypropylcellulose) (HPC)); 119 % of control (dose: 200.0 mg/kg/injection, schedule: Q04DX003 (ip), vehicle: Klucel (hydroxypropylcellulose) (HPC)); 103 % of control (dose: 400.0 mg/kg/injection, schedule: Q04DX003 (ip), vehicle: Klucel (hydroxypropylcellulose) (HPC)).

`Cc1ccc(C(=O)C(C#N)=Nc2ccc(N(C)C)cc2)cc1`: the T/C under setting [13] is 92 % of control; the T/C under setting [10] was 87 % of control and 91 % of control; the T/C under setting [11] was 92 % of control; the T/C under setting [12] was 99 % of control.

For the molecule `COC(=O)c1[nH]c(=O)c(C#N)c(C(=O)OC)c1-c1ccc(F)cc1`, the T/C runs as follows: (dose: 60.0 mg/kg/injection, schedule: Q01DX005 (ip), vehicle: saline with Tween-80) 100 % of control; (dose: 120.0 mg/kg/injection, schedule: Q01DX005 (ip), vehicle: saline with Tween-80) 92 % of control; (dose: 240.0 mg/kg/injection, schedule: Q01DX005 (ip), vehicle: saline with Tween-80) 95 % of control.

For `CSc1nc2nc[nH]c2c(=O)[nH]1`, the T/C under setting [14] was 100 % of control; the T/C under setting [15] was 100 % of control; the T/C under setting [16] is 101 % of control and 105 % of control; the T/C under setting [17] was 101 % of control; the T/C under setting [18] is 104 % of control.

For the molecule `CC12C3=CC=C4C=CC=C(c5ccccc5C1=CC=C3)C42C` (centres undefined), the T/C runs as follows: (dose: 50.0 mg/kg/injection, schedule: Q04DX002 (ip), vehicle: Klucel (hydroxypropylcellulose) (HPC)) 100 % of control; (dose: 100.0 mg/kg/injection, schedule: Q04DX002 (ip), vehicle: Klucel (hydroxypropylcellulose) (HPC)) 111 % of control; (dose: 200.0 mg/kg/injection, schedule: Q04DX002 (ip), vehicle: Klucel (hydroxypropylcellulose) (HPC)) 107 % of control.
